Usually IC50 stands for the concentration needed to halve the response being measured.

Structures can show the parent of a compound that is named as a salt.

T1 sequence (P08546 whole entry): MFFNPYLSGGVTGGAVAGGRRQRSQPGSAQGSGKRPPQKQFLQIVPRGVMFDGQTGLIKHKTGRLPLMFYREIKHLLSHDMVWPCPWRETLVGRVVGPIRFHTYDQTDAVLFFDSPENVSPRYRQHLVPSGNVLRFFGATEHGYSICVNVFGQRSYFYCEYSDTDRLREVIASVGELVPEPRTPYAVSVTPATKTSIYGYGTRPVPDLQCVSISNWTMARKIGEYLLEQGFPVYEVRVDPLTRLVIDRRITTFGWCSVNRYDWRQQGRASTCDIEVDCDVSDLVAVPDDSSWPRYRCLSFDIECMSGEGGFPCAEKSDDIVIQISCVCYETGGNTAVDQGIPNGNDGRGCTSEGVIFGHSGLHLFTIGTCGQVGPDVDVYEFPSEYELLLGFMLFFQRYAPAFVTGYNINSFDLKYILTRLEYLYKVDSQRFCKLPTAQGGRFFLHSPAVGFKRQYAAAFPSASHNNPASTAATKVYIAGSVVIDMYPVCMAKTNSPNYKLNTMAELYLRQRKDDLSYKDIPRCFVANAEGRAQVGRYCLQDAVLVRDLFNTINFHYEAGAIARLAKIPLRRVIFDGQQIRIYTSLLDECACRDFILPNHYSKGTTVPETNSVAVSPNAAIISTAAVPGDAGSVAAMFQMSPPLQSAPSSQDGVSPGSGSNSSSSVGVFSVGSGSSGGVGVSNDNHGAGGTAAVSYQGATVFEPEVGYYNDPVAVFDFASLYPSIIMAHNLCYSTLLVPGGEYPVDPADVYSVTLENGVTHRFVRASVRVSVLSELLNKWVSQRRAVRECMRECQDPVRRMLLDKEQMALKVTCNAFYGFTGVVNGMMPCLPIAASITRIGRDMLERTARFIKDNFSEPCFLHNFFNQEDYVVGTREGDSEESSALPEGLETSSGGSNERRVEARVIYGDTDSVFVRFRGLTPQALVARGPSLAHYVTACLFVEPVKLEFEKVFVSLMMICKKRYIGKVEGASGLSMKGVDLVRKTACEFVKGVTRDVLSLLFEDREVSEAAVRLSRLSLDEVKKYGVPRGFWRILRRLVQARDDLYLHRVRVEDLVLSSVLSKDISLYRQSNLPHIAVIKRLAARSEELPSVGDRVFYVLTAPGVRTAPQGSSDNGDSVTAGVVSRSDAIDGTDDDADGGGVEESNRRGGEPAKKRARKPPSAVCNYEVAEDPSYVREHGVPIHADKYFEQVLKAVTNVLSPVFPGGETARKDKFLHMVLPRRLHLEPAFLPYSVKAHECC

This experiment has as its target T1, HCMV polymerase (Human cytomegalovirus, UniProt P08546).
T1 construct: made in house; host or cells: recombinant baculovirus-infected SF-9 cells
Put plainly: HCMV polymerase scintillation proximity assay (SPA), modified version. In kind it is biochemical. Conditions: CMV polymerase; Table 1; modified assay with 4.5 mM DTT, compounds in 100% DMSO; read-out: Antiviral Selective Polymerase IC50 Values, CMV. The gist of the method: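 SPA measuring 3H-dTTP (90 nM) incorporation on 6 nM biotinylated poly(dA)-oligo(dT) by SF-9-expressed enzyme, pH 7.5 HEPES/KCl/MgCl2/BSA buffer with or without 2 mM CHAPS. Run at 25° C or 37° C, stopped with EDTA while linear (HCMV 30 min); IC50 from linear regression. Modified format adds 4.5 mM DTT, compounds diluted in 100% DMSO.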
(In a scintillation proximity assay essentially only radioactivity close to the scintillant gives light.)
With `O=C(NCc1ccc(Cl)cc1)c1c[nH]c2ccc(/C=C\CO)cc2c1=O` [Example 135, N-[(4-Chlorophenyl)methyl]-1,4-dihydro-6-[(1Z)-3-hydroxy-1-propenyl]-4-oxo-3-quinolinecarboxamide], the IC50 was found to be 0.78 µM. With `O=C(NCc1ccc(Cl)cc1)c1cnc2c(F)cc(/C=C\CO)cc2c1O` [Example 137, N-(4-Chlorobenzyl)-8-fluoro-4-hydroxy-6-[(Z)-3-hydroxy-1-propenyl]-3-quinolinecarboxamide], the IC50 is 0.6 µM. Under `O=CCCc1cc(F)c2ncc(C(=O)NCc3ccc(Cl)cc3)c(O)c2c1` [Example 139, N-(4-Chlorobenzyl)-8-fluoro-4-hydroxy-6-(3-oxopropyl)-3-quinolinecarboxamide] stands 1.9 µM; under `O=C(NCc1ccc(Cl)cc1)c1cnc2c(F)cc(CO)cc2c1O` [Example 141, N-(4-Chlorobenzyl)-8-fluoro-4-hydroxy-6-(hydroxymethyl)-3-quinolinecarboxamide], 10.1 µM; under `O=C(NCc1ccc(Cl)cc1)c1cnc2c(F)cc(C#CCF)cc2c1O` [Example 143, N-(4-Chlorobenzyl)-8-fluoro-6-(3-fluoro-1-propynyl)-4-hydroxy-3-quinolinecarboxamide], 3 µM.

In the case of `CC(C)C(NC(=O)OC(C)(C)C)C(=O)OCCCc1cc(F)c2ncc(C(=O)NCc3ccc(Cl)cc3)c(O)c2c1` (stereo not shown) [Example 146, 3-(3-{[(4-Chlorobenzyl)amino]carbonyl}-8-fluoro-4-hydroxy-6-quinolinyl)propyl 2-[(tert-butoxycarbonyl)amino]-3-methylbutanoate], the concentration for half-maximal inhibition (IC50) worked out at 38.7 µM.

Take `O=C(CN1CCOCC1)OCCCc1cc(F)c2ncc(C(=O)NCc3ccc(Cl)cc3)c(O)c2c1` [Example 147, 3-(3-([(4-Chlorobenzyl)amino]carbonyl}-8-fluoro-4-hydroxy-6-quinolinyl)propyl 2-morpholinoacetate]: the IC50 turned out to be 7 µM. The result for `CC(C)C(N)C(=O)OCCCc1cc(F)c2ncc(C(=O)NCc3ccc(Cl)cc3)c(O)c2c1` (stereo not shown) [Example 149, 3-(3-{[(4-Chlorobenzyl)amino]carbonyl}-8-fluoro-4-hydroxy-6-quinolinyl)propyl 2-amino-3-methylbutanoate] reads 6.3 µM; that for `O=C(Nc1ccccc1)OCC#Cc1cc(F)c2ncc(C(=O)NCc3ccc(Cl)cc3)c(O)c2c1` [Example 150, 3-(3-{[(4-Chlorobenzyl)amino]carbonyl}-8-fluoro-4-hydroxy-6-quinolinyl)-2-propynyl phenylcarbamate], 4.8 µM; that for `CCCc1ccc2ncc(C(=O)NCc3ccc(Cl)cc3)c(O)c2c1` [Example 151, N-(4-Chlorobenzyl)-4-hydroxy-6-propyl-3-quinolinecarboxamide], 0.91 µM. Regarding `CC(O)C#Cc1ccc2ncc(C(=O)NCc3ccc(Cl)cc3)c(O)c2c1` (stereo not shown) [Example 152, N-(4-Chlorobenzyl)-4-hydroxy-6-(3-hydroxy-1-butynyl)-3-quinolinecarboxamide], the IC50 was determined as 5.4 µM. Consider `CC(=O)/C=C/c1cc(F)c2ncc(C(=O)NCc3ccc(Cl)cc3)c(O)c2c1` [Example 153, N-(4-Chlorobenzyl)-8-fluoro-4-hydroxy-6-[(E)-3-oxo-1-butenyl]-3-quinolinecarboxamide], for which the IC50 was 8.3 µM. The result for `O=C(NCc1ccc(Cl)cc1)c1cnc2c(F)cc(CCCCCO)cc2c1O` [Example 154, N-(4-Chlorobenzyl)-8-fluoro-4-hydroxy-6-(5-hydroxypentyl)-3-quinolinecarboxamide] reads 3.4 µM; that for `CC(C)(C)OC(=O)NCCCCC(NC(=O)OC(C)(C)C)C(=O)OCCCc1cc(F)c2ncc(C(=O)NCc3ccc(Cl)cc3)c(O)c2c1` (stereo not shown) [Example 155, 3-(3{[(4-Chlorobenzyl)amino]carbonyl}-8-fluoro-4-hydroxy-6-quinolinyl)propyl 2,6-bis[(tert-butoxycarbonyl)amino]hexanoate], at least 50 µM. The result for `NCCCCC(N)C(=O)OCCCc1cc(F)c2ncc(C(=O)NCc3ccc(Cl)cc3)c(O)c2c1` (stereo not shown) [Example 156, 3-(3-{[(4-Chlorobenzyl)amino]carbonyl}-8-fluoro-4-hydroxy-6-quinolinyl)propyl 2,6-diaminohexanoate, trifluoroacetic acid salt] reads 15.9 µM; that for `O=C(NCc1ccc(Cl)cc1)c1cnc2c(F)cc(CN3CCOCC3)cc2c1O` [Example 158, N-(4-Chlorobenzyl)-8-fluoro-4-hydroxy-6-(4-morpholinylmethyl)-3-quinolinecarboxamide], under 0.78 µM. Under `O=C(Nc1ccccc1)OCCCc1cc(F)c2ncc(C(=O)NCc3ccc(Cl)cc3)c(O)c2c1` [Example 159, 3-(3-{[(4-Chlorobenzyl)amino]carbonyl}-8-fluoro-4-hydroxy-6-quinolinyl)propyl phenylcarbamate] stands 5 µM; under `CC(=O)CCc1cc(F)c2ncc(C(=O)NCc3ccc(Cl)cc3)c(O)c2c1` [Example 160, N-(4-Chlorobenzyl)-8-fluoro-4-hydroxy-6-(3-oxobutyl)-3-quinolinecarboxamide], 1.2 µM. On to `O=C(NCc1ccc(Cl)cc1)c1cnc2ccc(COCCO)cc2c1O` [Example 163, N-(4-Chlorobenzyl)-4-hydroxy-6-[(2-hydroxyethoxy)methyl]-3-quinolinecarboxamide], for which the concentration for half-maximal inhibition (IC50) came out at 0.59 µM. The result for `O=C(NCc1ccc(Cl)cc1)c1cnc2ccc(COC(CO)CO)cc2c1O` [Example 164, N-(4-Chlorobenzyl)-4-hydroxy-6-{[2-hydroxy-1-(hydroxymethyl)ethoxy]methyl}-3-quinolinecarboxamide] reads 2.3 µM; that for `COC(=O)c1ccc2ncc(C(=O)NCc3ccc(Cl)cc3)c(O)c2c1` [Example 165, Methyl 3-{[(4-chlorobenzyl)amino]carbonyl}-4-hydroxy-6-quinolinecarboxylate], 6.7 µM; that for `O=C(NCc1ccc(Cl)cc1)c1cnc2ccc(CO)cc2c1O` [Example 166, N-(4-Chlorobenzyl)-4-hydroxy-6-(hydroxymethyl)-3-quinolinecarboxamide], 7 µM. On to `Cc1cc(Cl)cc2c(O)c(C(=O)NCc3ccc(Cl)cc3)cnc12` [Example 167, 6-Chloro-N-[(4-chlorophenyl)methyl]-4-hydroxy-8-methyl-3-quinolinecarboxamide], for which the IC50 was 5 µM. Under `O=C(NCc1ccc(Cl)cc1)c1cnc2cc(F)c(F)cc2c1O` [Example 169, N-[(4-Chlorophenyl)methyl]-6,7-difluoro-4-hydroxy-3-quinolinecarboxamide] stands 3.7 µM.

In the case of `CSc1cc(F)c2ncc(C(=O)NCc3ccc(Cl)cc3)c(O)c2c1` [Example 170, N-(4-Chlorobenzyl)-8-fluoro-4-hydroxy-6-(methylsulfanyl)-3-quinolinecarboxamide], the concentration for half-maximal inhibition (IC50) turned out to be 4.4 µM. Under `O=C(NCc1ccc(Cl)cc1)c1cnc2c(F)cc(SCCO)cc2c1O` [Example 171] stands 1.9 µM. Under `NCCSc1cc(F)c2ncc(C(=O)NCc3ccc(Cl)cc3)c(O)c2c1` [Example 172, 6-[(2-Aminoethyl)sulfanyl]-N-(4-chlorobenzyl)-8-fluoro-4-hydroxy-3-quinolinecarboxamide, hydrobromide] stands 35.1 µM. Under `COCCOCSc1cc(F)c2ncc(C(=O)NCc3ccc(Cl)cc3)c(O)c2c1` [Example 173, N-(4-Chlorobenzyl)-8-fluoro-4-hydroxy-6-{[(2-methoxyethoxy)-methyl]sulfanyl}-3-quinolinecarboxamide] stands 12.8 µM. On to `O=C(NCc1ccc(Cl)cc1)c1cnc2c(F)cc(SCCN3CCOCC3)cc2c1O` [Example 174], for which the IC50 came out at 28.9 µM. Consider `C[S+]([O-])c1cc(F)c2ncc(C(=O)NCc3ccc(Cl)cc3)c(O)c2c1` (stereo not shown) [Example 175, N-(4-Chlorobenzyl)-8-fluoro-4-hydroxy-6-(methylsulfinyl)-3-quinolinecarboxamide], for which the IC50 was found to be 7.2 µM. The result for `CS(=O)(=O)c1cc(F)c2ncc(C(=O)NCc3ccc(Cl)cc3)c(O)c2c1` [Example 176, N-(4-Chlorobenzyl)-8-fluoro-4-hydroxy-6-(methylsulfonyl)-3-quinolinecarboxamide] reads 11.4 µM; that for `O=C(NCc1ccc(Cl)cc1)c1cnc2c(F)cc([S+]([O-])CCO)cc2c1O` (stereo not shown) [Example 177, N-(4-Chlorobenzyl)-8-fluoro-4-hydroxy-6-[(2-hydroxyethyl)sulfinyl]-3-quinolinecarboxamide], 7.2 µM; that for `O=C(NCc1ccc(Cl)cc1)c1cnc2c(F)cc(C(=O)N3CCOCC3)cc2c1O` [Example 180, N-(4-Chlorobenzyl)-8-fluoro-4-hydroxy-6-(4-morpholinylcarbonyl)-3-quinolinecarboxamide], 28.2 µM.

`O=C(NCCO)c1cc(F)c2ncc(C(=O)NCc3ccc(Cl)cc3)c(O)c2c1` [Example 181, N^3-(4-Chlorobenzyl)-8-fluoro-4-hydroxy-N^6-(2-hydroxyethyl)-3,6-quinolinedicarboxamide]: the IC50 was found to be 39.2 µM. The result for `CN(C)C(=O)c1cc(F)c2ncc(C(=O)NCc3ccc(Cl)cc3)c(O)c2c1` [Example 182, N^3-(4-Chlorobenzyl)-8-fluoro-4-hydroxy-N^6,N^6-dimethyl-3,6-quinolinedicarboxamide] reads 5 µM; that for `O=C(NCCc1ccc(O)cc1)c1cc(F)c2ncc(C(=O)NCc3ccc(Cl)cc3)c(O)c2c1` [Example 183, N^3-(4-Chlorobenzyl)-8-fluoro-4-hydroxy-N^6-(4-hydroxyphenethyl)-3,6-quinolinedicarboxamide], 32 µM. Under `NC(=O)c1cc(F)c2ncc(C(=O)NCc3ccc(Cl)cc3)c(O)c2c1` [Example 184, N^3-(4-Chlorobenzyl)-8-fluoro-4-hydroxy-3,6-quinolinedicarboxamide] stands 30.4 µM.

The values above are taken from US6093732A, “4-hydroxyquinoline-3-carboxamides and hydrazides as antiviral agents” (Pharmacia & Upjohn Company, priority 1998, dated 2000).
